Patent US20260042764A1, “COMPOSITIONS AND METHODS FOR INHIBITION OF KRAS” (TheRas, Inc., priority 2022, published 2026)

Experiments:
[1] = biological target: T1, Avi-KRAS G12D (1-169) GppNHp/RAF1 RBD-3xFLAG (52-151) (Homo sapiens, UniProt P01116, G12D); test: Raf1-KRAS G12D-GppNHP disruption HTRF assay (Biological Example 1); assay type: binding
T1 construct: Avi-KRAS G12D (1-169)
Procedure, shortened: (§1)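 Protein mix, 1 h RT, 700 rpm; reagent mix, 1 h RT, 700 rpm; HTRF read. Buffer Tris pH 7.5/NaCl/MgCl2/BSA/Tween, 10% DMSO. Output % activity, DMSO = 100%.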

[2] = system: SW620 cells (KRAS G12V); test: Cell-based pERK HTRF assay in SW620 cell (Biological Example 4); conditions: pERK HTRF
Procedure, shortened: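 SW620 (KRAS G12V) cells seeded at 3×10^4/well in RPMI, 10% FBS, then treated next day for 4 h with a 9-point half-log series from 1 μM top (0.25% DMSO). Lysates analyzed for pERK by HTRF (Eu cryptate/d2 antibodies, 4–24 h at room temperature), excitation 320 nm, emission 615 nm.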

[3] = biological target: T2, Avi-KRAS G12V (1-169) GppNHp/RAF1 RBD-3xFLAG (52-151) (Homo sapiens, UniProt P01116, G12V); test: Raf1-KRAS G12V-GppNHP disruption HTRF assay (Biological Example 1); assay type: binding
T2 construct: Avi-KRAS G12V (1-169)
T2 sequence (P01116 1-169 isoform P01116-2 G12V): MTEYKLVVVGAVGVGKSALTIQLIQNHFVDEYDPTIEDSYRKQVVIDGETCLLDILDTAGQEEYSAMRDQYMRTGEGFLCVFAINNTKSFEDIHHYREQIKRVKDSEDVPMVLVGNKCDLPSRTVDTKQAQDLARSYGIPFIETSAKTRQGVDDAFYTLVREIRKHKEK
Procedure, shortened: as §1

[4] = system: GP2d cells (KRAS G12D); test: Cell-based pERK HTRF assay in GP2d cell (Biological Example 2); conditions: GP2d (KRAS G12D) cells, pERK HTRF
Procedure, shortened: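 Treatment with test compounds lasted one hour in DMEM containing 10% FBS, with DMSO held at 0.25%. Dilution series: 9 points, half-log spacing, highest 1 μM or 100 nM. Lysates were incubated 4–24 h at room temperature with antibody mix, then HTRF was read at 320 nm excitation.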

[5] = biological target: T3, Avi-KRAS G12R (1-169) GppNHp/RAF1 RBD-3xFLAG (52-151) (Homo sapiens, UniProt P01116, G12R); test: Raf1-KRAS G12R-GppNHP disruption HTRF assay (Biological Example 1); assay type: binding
T3 construct: Avi-KRAS G12R (1-169)
T3 sequence (P01116 1-169 isoform P01116-2 G12R): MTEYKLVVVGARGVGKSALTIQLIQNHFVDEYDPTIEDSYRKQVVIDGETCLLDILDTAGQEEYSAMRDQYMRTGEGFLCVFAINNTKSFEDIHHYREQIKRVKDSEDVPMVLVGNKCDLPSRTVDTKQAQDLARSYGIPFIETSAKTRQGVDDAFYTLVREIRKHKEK
Procedure, shortened: as §1

[6] = biological target: T4, Avi-KRAS WT (1-169) GppNHp/RAF1 RBD-3xFLAG (52-151) (Homo sapiens, UniProt P01116); test: Raf1-KRAS WT-GppNHP disruption HTRF assay (Biological Example 1); assay type: binding
T4 construct: Avi-KRAS WT (1-169)
T4 sequence (P01116 1-169 isoform P01116-2): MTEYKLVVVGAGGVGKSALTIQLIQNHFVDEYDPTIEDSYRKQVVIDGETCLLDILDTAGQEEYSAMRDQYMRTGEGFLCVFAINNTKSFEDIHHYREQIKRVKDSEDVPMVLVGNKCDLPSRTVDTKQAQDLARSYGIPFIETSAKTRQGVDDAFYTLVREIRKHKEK
Procedure, shortened: as §1

[7] = KRAS G12D, GppNHp-loaded, class symbols
[8] = Homo sapiens, SW-620, SW620 (KRAS G12V) cells, class symbols
[9] = KRAS G12V, GppNHp-loaded, class symbols
[10] = KRAS G12R, GppNHp-loaded, class symbols
[11] = KRAS WT, GppNHp-loaded, class symbols
[12] = Homo sapiens, SW-620, SW620 (KRAS G12V) cells

T1 sequence (P01116 1-169 isoform P01116-2 G12D): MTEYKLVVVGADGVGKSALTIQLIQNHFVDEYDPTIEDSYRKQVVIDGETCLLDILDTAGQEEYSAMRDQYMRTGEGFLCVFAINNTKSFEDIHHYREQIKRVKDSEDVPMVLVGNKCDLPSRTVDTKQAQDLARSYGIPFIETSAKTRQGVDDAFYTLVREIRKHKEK

SMILES	IC50 [1, 7] [nM]	IC50 [2, 8] [nM]	IC50 [3, 9] [nM]	IC50 ([4]; GP2d, class symbols) [nM]	IC50 [5, 10] [nM]	IC50 [6, 11] [nM]	IC50 ([1]; KRAS G12D-GppNHp/RAF1 RBD HTRF) [nM]	IC50 [2, 12] [nM]	IC50 ([3]; KRAS G12V-GppNHp/RAF1 RBD HTRF) [nM]	IC50 ([4]; GP2d) [nM]	IC50 ([5]; KRAS G12R-GppNHp/RAF1 RBD HTRF) [nM]	IC50 ([6]; KRAS WT-GppNHp/RAF1 RBD HTRF) [nM]	other results
CCN(c1nc(OC[C@@]23CCCN2C[C@H](F)C3)nc2c(F)c(-c3ccc(F)c4sc(N)c(C#N)c34)c(C(F)(F)F)cc12)[C@H]1C[C@@H](C)N(C(=O)[C@H](C)OC)C1 (atropisomer, axis not shown) [Compound 753]	100 to 1000	< 100	100 to 1000	< 100	100 to 1000	100 to 1000	–	–	–	–	–	–	–
CCN(c1nc(OC[C@@]23CCCN2C[C@H](F)C3)nc2c(F)c(-c3ccc(F)c4sc(N)c(C#N)c34)c(C(F)(F)F)cc12)[C@@H]1CC(=O)N(CC(F)F)C1 (atropisomer, axis not shown) [Compound 612]	< 100	< 100	< 100	< 100	< 100	< 100	–	–	–	–	–	–	–
CC(=O)N1C[C@@H](N(C)c2nc(OC[C@@]34CCCN3C[C@H](F)C4)nc3c(F)c(-c4ccc(F)c5sc(N)c(C#N)c45)c(C(F)(F)F)cc23)C[C@@H]1CF [Compound 454]	–	–	–	–	–	–	100 to 1000	< 100	100 to 1000	< 100	100 to 1000	100 to 1000	–
CC1c2cc(C(=O)N(C)C)nn2CCN1c1nc(OCC23CCCN2CC(F)C3)nc2c(F)c(-c3ccc(F)c4sc(N)c(C#N)c34)c(C(F)(F)F)cc12 (stereo not drawn) [Compound 568]	1000 to 10000	< 100	100 to 1000	< 100	100 to 1000	1000 to 10000	–	–	–	–	–	–	–
C[C@@H]1C[C@H](O)CCN1c1nc(OC[C@@]23CCCN2C[C@H](F)C3)nc2c(F)c(-c3ccc(F)c4sc(N)c(C#N)c34)c(C(F)(F)F)cc12 [Compound 265]	–	–	–	–	–	–	–	< 100	–	< 100	–	–	IC50 ([1]; KRAS G12D, GppNHp-loaded, Table 11): 100 to 1000 nM; IC50 ([3]; KRAS G12V, GppNHp-loaded, Table 11): 100 to 1000 nM; IC50 ([5]; KRAS G12R, GppNHp-loaded, Table 11): 100 to 1000 nM; IC50 ([6]; KRAS WT, GppNHp-loaded, Table 11): 100 to 1000 nM
N#Cc1c(N)sc2c(F)ccc(-c3c(C(F)(F)F)cc4c(N5CCN6C(=O)CCC6C5)nc(OCC56CCCN5CC(F)C6)nc4c3F)c12 (stereo not drawn) [Compound 430]	–	–	–	–	–	–	100 to 1000	–	1000 to 10000	–	100 to 1000	100 to 1000	IC50 ([2]; SW620 (KRAS G12V) cells): < 100 nM; IC50 [4]: < 100 nM
N#Cc1c(N)sc2c(F)ccc(-c3c(C(F)(F)F)cc4c(N5C6CCC5CS(=O)(=O)C6)nc(OC[C@@]56CCCN5C[C@H](F)C6)nc4c3F)c12 [Compound 320]	–	–	–	–	–	–	100 to 1000	< 100	1000 to 10000	< 100	1000 to 10000	100 to 1000	–
CCN(c1nc(OC[C@@]23CCCN2C[C@H](F)C3)nc2c(F)c(-c3ccc(F)c4sc(N)c(C#N)c34)c(C(F)(F)F)cc12)[C@H]1CCN(C(=O)C2CC(OC)C2)C1 (stereo partly drawn) [Compound 777]	< 100	< 100	100 to 1000	< 100	< 100	100 to 1000	–	–	–	–	–	–	–
CCN(c1nc(OC[C@@]23CCCN2C[C@H](F)C3)nc2c(F)c(-c3ccc(F)c4sc(N)c(C#N)c34)c(C(F)(F)F)cc12)[C@H]1CCN(C(=O)C(F)F)C1 (atropisomer, axis not shown) [Compound 547]	–	–	–	–	–	–	< 100	< 100	< 100	< 100	< 100	< 100	–
CN(c1nc(OC[C@@]23CCCN2C[C@H](F)C3)nc2c(F)c(-c3ccc(F)c4sc(N)c(C#N)c34)c(C(F)(F)F)cc12)C1CCS(=O)(=O)CC1 [Compound 330]	–	–	–	–	–	–	100 to 1000	100 to 1000	1000 to 10000	< 100	1000 to 10000	100 to 1000	–
